In publication PMC13586308, “Cell type–selective targeting by heterobifunctional protein binders via in-cell enrichment” (Nature Communications, 2026):
Read-outs that look alike come from different tables or passages of the source.

Columns and labels:
[1] = molecular target: T1, FKBP12 (Homo sapiens, UniProt P62942); assay: competitive fluorescence polarization assay, binding to FKBP12; conditions: competitive FP assay
[2] = molecular target: T2, BRD4^BD1 (Homo sapiens, UniProt O60885); assay: competitive fluorescence polarization assay, BRD4 BD1 -/+ presenter protein; assay type: binding; conditions: for α BRD4^BD1 (binding cooperativity factor): ratio of binding in absence or presence of FKBP12
T2 construct: to the isolated BD1 and BD2 domains of BRD2, BRD3 and BRD4

[3] = molecular target: T3, BRD4^BD2 (Homo sapiens, UniProt O60885); assay: competitive fluorescence polarization assay, BRD4 BD2 -/+ presenter protein; assay type: binding; conditions: for α BRD4^BD2 (binding cooperativity factor): ratio of binding in absence or presence of FKBP12
T3 construct: to the isolated BD1 and BD2 domains of BRD2, BRD3 and BRD4

[4] = molecular target: T1, FKBP12; assay: NanoBRET FKBP12 in intact HEK293 cells; assay type: cell-based
[5] = molecular target: T4, BRD4 (Homo sapiens, UniProt O60885); assay: NanoBRET BRD4, transient BRD4-NanoLuc in HEK293T cells; assay type: cell-based; conditions: intact HEK293 cells
T4 construct: full-length BRD4 fused to NanoLuc at N terminus; expressed in transfected cells; host or cells: HEK293T
Protocol: The NanoBRET assay was performed as described previously[26],[39]. To study BRD4 engagement, we employed two models: cells stably expressing BRD4-NanoLuc and cells with transient BRD4-NanoLuc expression. For stable cell lines, the coding sequence of human BRD4 (Isoform B) was fused in-frame to NanoLuc luciferase under the control of the human ubiquitin C (UbC) promoter, with left and right homology arms targeting the AAVS1 locus in intron 1 of the PPP1R12C gene to facilitate genomic integration. PC3 prostate cancer cells were transfected with this construct and vectors expressing Cas9 and an sgRNA targeting the AAVS1 locus using Lipofectamine 3000 (Invitrogen). Successful integrands were selected with blasticidin. Expression of the fusion protein was confirmed by western blot. For transient experiments, full-length BRD4 fused to NanoLuc at N terminus, was cloned into an expression plasmid and transfected into HEK293T cells using FuGENE HD (Promega, E2312), with protein expression allowed for 20 h. Serially diluted inhibitors and BRD Tracer-02 (Promega, TracerDB ID: T000022) at the Tracer KD concentration (from TracerDB)[40] were dispensed into white 384-well plates (Greiner 781207) using an ECHO 550 acoustic dispenser (Labcyte). The cells were trypsinized, resuspended in Opti-MEM without phenol red (Life Technologies), and seeded at 2 × 10^5 cells/mL. After equilibration for 2 h at 37 °C/5% CO₂ following compound treatment, the NanoBRET® NanoGlo Substrate + Extracellular NanoLuc® Inhibitor (Promega, N2162) was added according to the manufacturer’s protocol, and filtered luminescence was measured on a PHERAstar plate reader (BMG Labtech) using a donor (450 nm BP) and acceptor (610 nm LP) filter pair. Competitive displacement data were analyzed using GraphPad Prism 9 with a normalized 3-parameter curve fit: Y = 100/(1 + 10^(X − log IC₅₀)). For BRET measurements after FKBP12 knockdown in stably expressing BRD4 Nano-Luc reporter cell line, 10 nL/per well of the FKBP12 PROTAC was pipetted to each well using Labcyte to achieve the final concentration of 200 nM and the plated cells were incubated over-night at 37 °C and 5% CO2. BRET measurements were performed as outlined above.

[6] = absence of FKBP12, 2 nM JQ1-FL tracer, read-out: Binding to BRD4^BD2 - FKBP12 Kd
[7] = absence of FKBP12, 2 nM JQ1-FL tracer, read-out: Binding to BRD4^BD1 - FKBP12 Kd
[8] = presence of 15 µM FKBP12, read-out: Binding to BRD4^BD1 + FKBP12 Kd (converted)
[9] = presence of 15 µM FKBP12, read-out: Binding to BRD4^BD2 + FKBP12 Kd (converted)

T1 sequence (P62942 whole entry): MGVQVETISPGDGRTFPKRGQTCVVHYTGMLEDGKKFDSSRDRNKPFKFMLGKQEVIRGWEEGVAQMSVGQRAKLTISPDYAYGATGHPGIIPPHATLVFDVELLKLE

Compound | Kd [1] | α BRD4^BD1 (binding cooperativity factor) [2] | Kd [3, 6] | α BRD4^BD2 (binding cooperativity factor) [3] | IC50 [4] | IC50 [5] | Kd [2, 7] | Kd [2, 8] | Kd [3, 9] | nanoBRET BRD4 IC50 [5]
C=CC1CN(Cc2cn(CCOCCNC(=O)CC3N=C(c4ccc(Cl)cc4)c4c(sc(C)c4C)-n4c(C)nnc43)nn2)C(=O)C2CCCC1N2S(=O)(=O)c1cc(Cl)cc(Cl)c1 (stereo not drawn) [a1i] | 10 nM | 0.5 | 910 ± 160 nM | 0.3 | 200 nM | 560 nM |  |  |  | 
Cc1sc2c(c1C)C(c1ccc(Cl)cc1)=NC(CC(=O)N1CCC(N3CCC(n4cc(COCC5CN(Cc6ccccn6)C(=O)C6CCCC5N6S(=O)(=O)c5cc(Cl)cc(Cl)c5)nn4)CC3)CC1)c1nnc(C)n1-2 (stereo not drawn) [a9d] | 1.7 nM | 2.4 | 500 ± 90 nM | 1.1 | 169 nM | 364 nM | 340 ± 40 nM | 140 ± 10 nM | 450 ± 70 nM | 
C=C[C@H]1CN(Cc2ccccn2)C(=O)[C@@H]2CCC[C@H]1N2S(=O)(=O)c1ccc(-c2cn(CCOCCOCCNC(=O)C[C@@H]3N=C(c4ccc(Cl)cc4)c4c(sc(C)c4C)-n4c(C)nnc43)nn2)c(Cl)c1 [a2h] | 2.4 nM |  | 46 ± 10 nM |  | 170 nM | 300 nM | 210 ± 18 nM | 2400 ± 200 nM | 1300 ± 200 nM | 
Cc1sc2c(c1C)C(c1ccc(Cl)cc1)=NC(CC(=O)NCCOCCn1cc(C3CN(Cc4ccccn4)C(=O)C4CCCC3N4S(=O)(=O)c3cc(Cl)cc(Cl)c3)nn1)c1nnc(C)n1-2 (stereo not drawn) [a1c] | 1 nM | 0.3 | 590 ± 110 nM | 0.4 | 22 nM | 940 nM |  |  |  | 
Cc1sc2c(c1C)C(c1ccc(Cl)cc1)=NC(CC(=O)N1CC(CN3CCC(n4cc(COCC5CN(Cc6ccccn6)C(=O)C6CCCC5N6S(=O)(=O)c5cc(Cl)cc(Cl)c5)nn4)CC3)C1)c1nnc(C)n1-2 (stereo not drawn) [a11d] | 0.8 nM | 12 |  | 1.8 | 165 nM | 687 nM | 480 ± 70 nM | 40 ± 10 nM | 700 ± 100 nM | 
C=CC1CN(Cc2ccccn2)C(=O)C2CCCC1N2S(=O)(=O)c1cc(Cl)cc(-c2cn(CCOCCOCCNC(=O)CC3N=C(c4ccc(Cl)cc4)c4c(sc(C)c4C)-n4c(C)nnc43)nn2)c1 (stereo not drawn) [a2g] | 76 nM | 0.4 | 580 ± 90 nM | 0.4 |  | 3070 nM |  |  |  | 
Cc1sc2c(c1C)C(c1ccc(Cl)cc1)=NC(CC(=O)N1CC(CN3CCC(Cn4cc(COCC5CN(Cc6ccccn6)C(=O)C6CCCC5N6S(=O)(=O)c5cc(Cl)cc(Cl)c5)nn4)CC3)C1)c1nnc(C)n1-2 (stereo not drawn) [a12d] | 2.3 nM | 6.3 |  | 1.9 | 406 nM | 514 nM | 250 ± 40 nM | 40 ± 10 nM | 590 ± 70 nM | 
C=CC1CN(Cc2ccccn2)C(=O)C2CCCC1N2S(=O)(=O)c1ccc(-c2cn(CCOCCNC(=O)CC3N=C(c4ccc(Cl)cc4)c4c(sc(C)c4C)-n4c(C)nnc43)nn2)c(Cl)c1 (stereo not drawn) [a1h] | 50 nM |  | 52 ± 13 nM |  | 530 nM | 270 nM | 100 ± 18 nM | 1700 ± 200 nM | 1100 ± 200 nM | 
Cc1sc2c(c1C)C(c1ccc(Cl)cc1)=NC(CC(=O)N1CCC(N3CCC(n4cc(C5CN(Cc6ccccn6)C(=O)C6CCCC5N6S(=O)(=O)c5cc(Cl)cc(Cl)c5)nn4)CC3)CC1)c1nnc(C)n1-2 (stereo not drawn) [a9c] | 2.2 nM | 1.6 | 310 ± 40 nM | 0.5 | 107 nM | 155 nM | 280 ± 40 nM | 180 ± 20 nM | 650 ± 90 nM | 
C=CC1CN(Cc2ccccn2)C(=O)C2CCCC1N2S(=O)(=O)c1cc(Cl)cc(-c2cn(CCOCCNC(=O)CC3N=C(c4ccc(Cl)cc4)c4c(sc(C)c4C)-n4c(C)nnc43)nn2)c1 (stereo not drawn) [a1g] | 46 nM |  |  | 0.2 | 230 nM | 1500 nM |  | > 20000 nM |  | 
C=CC1CN(Cc2cn(CCOCCOCCNC(=O)CC3N=C(c4ccc(Cl)cc4)c4c(sc(C)c4C)-n4c(C)nnc43)nn2)C(=O)C2CCCC1N2S(=O)(=O)c1cc(Cl)cc(Cl)c1 (stereo not drawn) [a2i] | 8.7 nM | 1.1 | 140 ± 30 nM | 0.1 | 180 nM | 790 nM | 330 ± 40 nM | 290 ± 30 nM | 960 ± 120 nM | 
Cc1sc2c(c1C)C(c1ccc(Cl)cc1)=NC(CC(=O)N1CCC(CN3CCC(Cn4cc(C5CN(Cc6ccccn6)C(=O)C6CCCC5N6S(=O)(=O)c5cc(Cl)cc(Cl)c5)nn4)CC3)CC1)c1nnc(C)n1-2 (stereo not drawn) [a8c] | 2.1 nM | 1.1 | 190 ± 30 nM | 1.2 | 178 nM | 541 nM | 170 ± 20 nM | 150 ± 20 nM | 160 ± 30 nM | 
Cc1sc2c(c1C)C(c1ccc(Cl)cc1)=NC(CC(=O)N1CCN(CCn3cc(COCC4CN(Cc5ccccn5)C(=O)C5CCCC4N5S(=O)(=O)c4cc(Cl)cc(Cl)c4)nn3)CC1)c1nnc(C)n1-2 (stereo not drawn) [a4d] | 1.1 nM | 1.3 |  | 1 | 89 nM |  | 500 ± 60 nM | 380 ± 50 nM |  | none
Cc1sc2c(c1C)C(c1ccc(Cl)cc1)=NC(CC(=O)N1CC(CN3CCC(Cn4cc(C5CN(Cc6ccccn6)C(=O)C6CCCC5N6S(=O)(=O)c5cc(Cl)cc(Cl)c5)nn4)CC3)C1)c1nnc(C)n1-2 (stereo not drawn) [a12c] | 1.8 nM | 1.7 | 800 ± 100 nM | 1.1 | 280 nM | 748 nM | 390 ± 50 nM | 230 ± 20 nM | 700 ± 90 nM | 
Cc1sc2c(c1C)C(c1ccc(Cl)cc1)=NC(CC(=O)N1CCC(CN3CCC(n4cc(COCC5CN(Cc6ccccn6)C(=O)C6CCCC5N6S(=O)(=O)c5cc(Cl)cc(Cl)c5)nn4)CC3)CC1)c1nnc(C)n1-2 (stereo not drawn) [a7d] | 2.3 nM | 2.2 | 700 ± 100 nM | 1 | 209 nM | 1110 nM | 680 ± 70 nM | 310 ± 50 nM | 660 ± 90 nM | 
Cc1sc2c(c1C)C(c1ccc(Cl)cc1)=NC(CC(=O)NCCOCCOCCn1cc(C3CN(Cc4ccccn4)C(=O)C4CCCC3N4S(=O)(=O)c3cc(Cl)cc(Cl)c3)nn1)c1nnc(C)n1-2 (stereo not drawn) [a2c] | 0.6 nM | 1.8 | 510 ± 110 nM | 0.5 | 17 nM | 620 nM | 440 ± 70 nM | 250 ± 40 nM |  | 
Cc1sc2c(c1C)C(c1ccc(Cl)cc1)=NC(CC(=O)N1CCN(CCCCn3cc(COCC4CN(Cc5ccccn5)C(=O)C5CCCC4N5S(=O)(=O)c4cc(Cl)cc(Cl)c4)nn3)CC1)c1nnc(C)n1-2 (stereo not drawn) [a6d] | 0.9 nM | 1.5 |  | 1.8 | 141 nM | 787 nM | 600 ± 80 nM | 400 ± 50 nM | 800 ± 200 nM | 
Cc1sc2c(c1C)C(c1ccc(Cl)cc1)=NC(CC(=O)NCCOCCn1cc(COC(C)C3CN(Cc4ccccn4)C(=O)C4CCCC3N4S(=O)(=O)c3cc(Cl)cc(Cl)c3)nn1)c1nnc(C)n1-2 (stereo not drawn) [a1e] | 8.9 nM | 1.5 | 33 ± 9 nM | 0.6 | 103 nM | 390 nM | 70 ± 10 nM | 48 ± 7 nM | 60 ± 10 nM | 
